In ChEMBL document CHEMBL4219085, “Discovery of isatin and 1H-indazol-3-ol derivatives as d-amino acid oxidase (DAAO) inhibitors” (Bioorg Med Chem, 2018):
Values belong to the molecule of their own block, whether it stands above or below them.

Key:
D-amino-acid oxidase [1] = molecular target: T1, D-amino-acid oxidase (Homo sapiens, UniProt P14920); assay: Inhibition of human DAAO using D-KYN as substrate preincubated for 20 mins followed by substrate addition measured after 30 mins by FP-6300-based fluorescence spectrometry
Target sequence in this assay (P14920 whole entry): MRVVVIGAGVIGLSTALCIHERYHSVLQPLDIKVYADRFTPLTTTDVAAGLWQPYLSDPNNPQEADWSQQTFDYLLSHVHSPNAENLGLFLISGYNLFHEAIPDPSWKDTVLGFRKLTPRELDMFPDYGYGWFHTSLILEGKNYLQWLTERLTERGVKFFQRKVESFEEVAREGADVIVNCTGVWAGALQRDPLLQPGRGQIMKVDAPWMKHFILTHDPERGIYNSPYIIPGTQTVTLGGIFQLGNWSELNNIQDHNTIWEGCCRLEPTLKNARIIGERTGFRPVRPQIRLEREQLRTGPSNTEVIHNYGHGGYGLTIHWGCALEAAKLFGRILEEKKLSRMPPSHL

D-amino-acid oxidase [2] = molecular target: D-amino-acid oxidase (Sus scrofa, UniProt P00371); assay: Binding affinity to pig kidney DAAO by ITC method
Sequence of D-amino-acid oxidase (Sus scrofa, UniProt P00371) (P00371 whole entry): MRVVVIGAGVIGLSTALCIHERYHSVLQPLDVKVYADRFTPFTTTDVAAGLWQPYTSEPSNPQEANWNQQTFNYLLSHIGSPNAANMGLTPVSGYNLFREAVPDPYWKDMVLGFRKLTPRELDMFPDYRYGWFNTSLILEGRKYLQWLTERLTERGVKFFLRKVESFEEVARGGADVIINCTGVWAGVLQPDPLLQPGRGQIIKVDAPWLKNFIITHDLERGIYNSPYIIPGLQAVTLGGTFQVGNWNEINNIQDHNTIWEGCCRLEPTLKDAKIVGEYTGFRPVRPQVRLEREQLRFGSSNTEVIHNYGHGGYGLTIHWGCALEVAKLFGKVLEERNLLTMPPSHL

[3] = Dissociation constant, pKa of the compound by UV-spectrophotometric titration method; assay type: physicochemical
[4] = Effective permeability of the compound after 4 hrs at pH 5.5 to 7.4 by PAMPA; assay type: ADME; settings: read-out: Peff
[5] = Effective permeability of the compound assessed as membrane retention after 4 hrs at pH 5.5 to 7.4 by PAMPA; assay type: ADME; settings: pH 5.5, 4 h
[6] = Effective permeability of the compound after 4 hrs at pH 6.5 to 7.4 by PAMPA; assay type: ADME; settings: read-out: Peff
[7] = Effective permeability of the compound assessed as membrane retention after 4 hrs at pH 6.5 to 7.4 by PAMPA; assay type: ADME; settings: pH 6.5, 4 h
[8] = Effective permeability of the compound after 4 hrs at pH 7.4 by PAMPA; assay type: ADME; settings: read-out: Peff
[9] = Effective permeability of the compound assessed as membrane retention after 4 hrs at pH 7.4 by PAMPA; assay type: ADME; settings: pH 7.4, 4 h
[10] = Elimination half life in NMRI mouse hepatic microsomes at 1 uM up to 90 mins by LC-MS/MS analysis; assay type: ADME, microsome; settings: liver microsomes, read-out: beta t1/2
[11] = Intrinsic clearance in NMRI mouse hepatic microsomes at 1 uM up to 90 mins by LC-MS/MS analysis; assay type: ADME, microsome; settings: liver microsomes, read-out: CLH
[12] = Elimination half life in NMRI mouse primary hepatocytes at 1 uM up to 240 mins by LC-MS/MS analysis; assay type: ADME, cell-based, Hepatocyte; settings: read-out: beta t1/2
[13] = Intrinsic clearance in NMRI mouse primary hepatocytes at 1 uM up to 240 mins by LC-MS/MS analysis; assay type: ADME, cell-based, Hepatocyte; settings: read-out: CLH
[14] = Elimination half life in human hepatic microsomes at 1 uM up to 90 mins by LC-MS/MS analysis; assay type: ADME, microsome; settings: liver microsomes, read-out: beta t1/2
[15] = Intrinsic clearance in human hepatic microsomes at 1 uM up to 90 mins by LC-MS/MS analysis; assay type: ADME, microsome; settings: liver microsomes, read-out: CLH
[16] = Elimination half life in human primary hepatocytes at 1 uM up to 240 mins by LC-MS/MS analysis; assay type: ADME, cell-based, Hepatocyte; settings: read-out: beta t1/2
[17] = Intrinsic clearance in human primary hepatocytes at 1 uM up to 240 mins by LC-MS/MS analysis; assay type: ADME, cell-based, Hepatocyte; settings: read-out: CLH
D-amino-acid oxidase [18] = molecular target: T1, D-amino-acid oxidase; assay: Inhibition of human DAAO at 20 uM using D-KYN as substrate preincubated for 20 mins followed by substrate addition measured after 30 mins by FP-6300-based fluorescence spectrometry
Target sequence in this assay (P14920 whole entry, looked up): as the sequence (P14920 whole entry) above

D-amino-acid oxidase [19] = molecular target: T1, D-amino-acid oxidase; assay: Inhibition of DAAO (unknown origin)
Target sequence in this assay (P14920 whole entry): as above

Mus musculus [20] = assay: Anti-schizophrenic activity in NMRI mouse assessed as increase in D-serine levels in blood at 30 mg/kg, ip measured after 10 mins by capillary electrophoresis laser induced fluorescence method; assay type: functional
Mus musculus [21] = assay: Anti-schizophrenic activity in NMRI mouse assessed as increase in D-serine levels in blood at 30 mg/kg, ip measured after 60 mins by capillary electrophoresis laser induced fluorescence method; assay type: functional
[22] = Drug level in blood of NMRI mouse assessed at 30 mg/kg, ip co-dosed with 30 mg/kg, ip D-serine measured after 10 mins; assay type: ADME, organism-based; settings: read-out: Drug uptake
[23] = Drug level in blood of NMRI mouse assessed at 30 mg/kg, ip co-dosed with 30 mg/kg, ip D-serine measured after 60 mins; assay type: ADME, organism-based; settings: read-out: Drug uptake

inhibition (D-amino-acid oxidase [18]): 34%
pKa [3]: 7.51
SMILES: Oc1n[nH]c2cccc(Br)c12

IC50 (D-amino-acid oxidase [19]): 7.87 µM
pKa [3]: 9.44
SMILES: O=C1Nc2c(Cl)cccc2C1=O

Kd (D-amino-acid oxidase [2]): 870 nM
SMILES: Oc1noc2cc(Cl)ccc12

pKa [3]: 7.53
Kd (D-amino-acid oxidase [2]): 780 nM
SMILES: Oc1n[nH]c2ccc(Cl)cc12

Kd (D-amino-acid oxidase [2]): 3290 nM
SMILES: O=c1[nH][nH]c2ccc(Br)cc12

IC50 (D-amino-acid oxidase [1]): 120 to 123 nM
pKa [3]: 7.84
Kd (D-amino-acid oxidase [2]): 1000 nM
Papp at 4 h [4]: 1.2 ×10⁻⁶ cm/s
R% [5]: 3.9%
Papp at 4 h [6]: 0.97 ×10⁻⁶ cm/s
R% [7]: 7.1%
Papp at 4 h [8]: 0.72 ×10⁻⁶ cm/s
R% [9]: 5.8%
half-life at […], 1 µM [10]: 79.5 min
CLint scaled at […], 1 µM [11]: 8.29 mL/min/kg
half-life at 1 µM [12]: 178 min
CLint scaled at 1 µM [13]: 20 mL/min/kg
half-life at […], 1 µM [14]: 182 min
CLint scaled at […], 1 µM [15]: 0.9 mL/min/kg
half-life at 1 µM [16]: 412 min
CLint scaled at 1 µM [17]: 2.78 mL/min/kg
concentration at 10 min [22]: 13.1 µM
concentration at 1 h [23]: 770 nM
SMILES: Oc1n[nH]c2cc(F)ccc12
Activity (Mus musculus [20]): 33%
Activity (Mus musculus [21]): 27%

pKa [3]: 8.16
Kd (D-amino-acid oxidase [2]): 4430 nM
SMILES: O=c1[nH][nH]c2ccccc12

The next lines start with the molecule.

SMILES: Cc1cccc2c1NC(=O)C2=O
IC50 (D-amino-acid oxidase [1]): 13100 nM
Kd (D-amino-acid oxidase [2]): 8230 nM

SMILES: Oc1n[nH]c2c(Cl)cccc12
IC50 (D-amino-acid oxidase [1]): 10100 nM
pKa [3]: 7.28
Kd (D-amino-acid oxidase [2]): 3310 nM

SMILES: Oc1n[nH]c2cc(Cl)ccc12
IC50 (D-amino-acid oxidase [1]): 150 to 156 nM
pKa [3]: 7.59
Kd (D-amino-acid oxidase [2]): 2000 nM
Papp at 4 h [4]: 9.53 ×10⁻⁶ cm/s
R% [5]: 6.7%
Papp at 4 h [6]: 7.43 ×10⁻⁶ cm/s
R% [7]: 9.7%
Papp at 4 h [8]: 4.47 ×10⁻⁶ cm/s
R% [9]: 2.5%
half-life at […], 1 µM [10]: 56.5 min
CLint scaled at […], 1 µM [11]: 11.7 mL/min/kg
half-life at 1 µM [12]: 52.2 min
CLint scaled at 1 µM [13]: 68.2 mL/min/kg
half-life at […], 1 µM [14]: 216 min
CLint scaled at […], 1 µM [15]: 0.76 mL/min/kg
half-life at 1 µM [16]: 450 min
CLint scaled at 1 µM [17]: 2.54 mL/min/kg

SMILES: Oc1noc2ccccc12
IC50 (D-amino-acid oxidase [1]): 418 nM
Kd (D-amino-acid oxidase [2]): 440 nM

SMILES: Oc1n[nH]c2cccc(Cl)c12
inhibition (D-amino-acid oxidase [18]): 19%
pKa [3]: 7.51

SMILES: Oc1cc(CCc2ccccc2)[nH]n1
inhibition (D-amino-acid oxidase [18]): 66%

SMILES: O=[N+]([O-])c1ccc2c(O)[nH]nc2c1
IC50 (D-amino-acid oxidase [1]): 1200 nM
pKa [3]: 6.52
Kd (D-amino-acid oxidase [2]): 4590 nM

SMILES: Oc1n[nH]c2ccc(F)cc12
Kd (D-amino-acid oxidase [2]): 1200 nM
